In patent US20060100431A1, “Biologically active compounds” (Amura Therapeutics Limited, priority 2002, published 2006):
Like-named read-outs stand apart in the source and are kept apart here.

Legend:
Format in all cases: biochemical
human cathepsin L = biological target: T1, human cathepsin L (Homo sapiens, UniProt P07711); assay: Cathepsin L peptidase activity assay (Ki); details: read-out: Ki, inhibitors of cathepsin L
T1 construct: purchased CN Biosciences
Outline: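 Run at 25±1° C with DMSO under 1%: buffer was 10 mM BTP pH 6.5 containing 1 mM EDTA, 1 mM CaCl2 and 5 mM 2-mercaptoethanol. Enzyme (1 nM cathepsin L) was added last to start hydrolysis of Ac-Phe-Arg-AMC held at KM^app (~20 μM), followed kinetically by fluorescence at 365/450 nm.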

human cathepsin B = biological target: T2, human cathepsin B (Homo sapiens, UniProt P07858); assay: Cathepsin B peptidase activity assay (Ki)
T2 construct: purchased CN Biosciences
Experimental: Unless otherwise stated, all general chemicals and biochemicals were purchased from either the Sigma Chemical Company, Poole, Dorset, U.K or from Fisher Scientific UK, Loughborough, Leicestershire, U.K. Absorbance assays were carried out in flat-bottomed 96-well plates (Spectra; Greiner Bio-One Ltd., Stonehouse, Gloucestershire, U.K.) using a SpectraMax PLUS384 plate reader (Molecular Devices, Crawley, U.K.). […] Fluorescence assays were monitored using a SpectraMax Gemini fluorescence plate reader (Molecular Devices). For substrates employing either a 7-amino-4-methylcoumarin (AMC) or a 7-amino-4-trifluoromethylcoumarin (AFC) fluorophore, assays were monitored at an excitation wavelength of 365 nm and an emission wavelength of 450 nm and the fluorescence plate reader calibrated with AMC. For substrates employing a 3-amino-benzoyl (Abz) fluorophore, assays were monitored at an excitation wavelength of 310 nm and an emission wavelength of 445 nm; the fluorescence plate reader calibrated with 3-amino-benzamide (Fluka). Unless otherwise indicated, all the peptidase substrates were purchased from Bachem UK, St Helens, Merseyside, UK. […] Hydroxyethylpiperazine ethanesulfonate (HEPES), tris-hydroxylmethyl aminomethane (tris) base, bis-tris-propane and all the biological detergents (e.g. CHAPS, zwittergents, etc.) were purchased from CN Biosciences UK, Beeston, Nottinghamshire, U.K. Glycerol was purchased from Amersham Pharmacia Biotech, Little Chalfont, Buckinghamshire, U.K. Stock solutions of substrate or inhibitor were made up to 10 mM in 100% dimethylsulfoxide (DMSO) (Rathburns, Glasgow, U.K.) and diluted as appropriately required. In all cases the DMSO concentration in the assays was maintained at less than 1% (vol./vol.).
Enzyme was added as required to initiate the reaction and the activity, as judged by the change in fluorescence upon conversion of substrate to product, was monitored over time. All assays were carried out at 25±1° C.
Bovine cathepsin S, human cathepsin L, human cathepsin H and human cathepsin B were obtained from CN Biosciences. Recombinant human cathepsin S, human cathepsin K and human cathepsin X were obtained from Dr. Boris Turk (Josef Stefan Institute, Ljubljana, Slovenia). Unless otherwise stated, all peptidase activity assays were carried out in 10 mM bis-tris-propane (BTP), pH 6.5 containing 1 mM EDTA, 5 mM 2-mercaptoethanol and 1 mM CaCl2.
The apparent inhibition constant (Ki) for each compound was determined on the basis that inhibition was reversible and occurred by a pure-competitive mechanism. […] [formula]
[formula] Ki^app=Ki(1+[So]/KM^app) (4)
Curves were fitted by non-linear regression analysis (Prism) using a fixed value for the enzyme concentration.

CPB2.8ΔCTE = biological target: T3, CPB2.8ΔCTE (Leishmania mexicana, UniProt P36400); assay: Leishmania mexicana cysteine protease B (CPB) peptidase activity assay (Ki); details: Ki, inhibitors of Leismania mexicana CPB protease
T3 construct: Wild-type recombinant CPB without the C-terminal extention (i.e. CPB2.8ΔCTE); Dr. Jeremy Mottram (Wellcome Centre for Molecular Parasitology, University of Glasgow)
Outline: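 Apparent Ki was derived by regression of activity against inhibitor concentration, assuming pure-competitive reversible binding. Reaction: 0.25 nM CPB lacking the C-terminal extension, pH 5.5 acetate buffer (1 mM EDTA, 200 mM NaCl, 10 mM DTT), 25 °C, followed by continuous substrate fluorescence.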

Wild-type cruzipain = Wild-type cruzipain (Trypanosoma cruzi, UniProt P25779); assay: Trypanosoma cruzi cruzipain peptidase activity assay (Ki); details: read-out: Ki, inhibitors of cruzain and cruzipains
Outline: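 Native cruzipain from T. cruzi Dm28 epimastigotes, 2.5 nM, in 100 mM sodium phosphate pH 6.75 with 1 mM EDTA and 10 mM L-cysteine, 25 °C, DMSO <1%. Rates taken from continuous fluorogenic substrate read; Ki by regression assuming reversible pure-competitive inhibition.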

[1] = read-out: Ki, inhibitors of cathepsin B

T1 sequence (P07711 114-333): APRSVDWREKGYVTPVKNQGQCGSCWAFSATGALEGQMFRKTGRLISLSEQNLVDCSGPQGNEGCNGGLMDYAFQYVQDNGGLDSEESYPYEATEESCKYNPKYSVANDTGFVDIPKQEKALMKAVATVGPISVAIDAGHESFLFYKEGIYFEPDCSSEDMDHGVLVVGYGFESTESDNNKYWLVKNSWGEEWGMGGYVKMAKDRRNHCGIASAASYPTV
Chain of Wild-type cruzipain (P25779 whole entry): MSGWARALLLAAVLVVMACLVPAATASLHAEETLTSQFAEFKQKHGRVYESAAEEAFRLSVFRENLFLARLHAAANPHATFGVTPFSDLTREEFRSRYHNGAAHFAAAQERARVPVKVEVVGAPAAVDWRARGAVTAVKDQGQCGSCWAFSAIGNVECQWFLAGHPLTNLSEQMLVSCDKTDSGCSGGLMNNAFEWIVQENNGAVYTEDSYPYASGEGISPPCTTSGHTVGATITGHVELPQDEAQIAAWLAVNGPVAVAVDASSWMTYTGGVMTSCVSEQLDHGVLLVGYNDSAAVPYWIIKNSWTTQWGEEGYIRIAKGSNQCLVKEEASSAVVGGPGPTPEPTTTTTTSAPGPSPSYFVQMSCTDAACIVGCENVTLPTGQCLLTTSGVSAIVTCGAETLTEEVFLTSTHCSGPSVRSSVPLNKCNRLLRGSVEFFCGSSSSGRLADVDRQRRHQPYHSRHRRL
T3 sequence (P36400 126-343, stated change not applied): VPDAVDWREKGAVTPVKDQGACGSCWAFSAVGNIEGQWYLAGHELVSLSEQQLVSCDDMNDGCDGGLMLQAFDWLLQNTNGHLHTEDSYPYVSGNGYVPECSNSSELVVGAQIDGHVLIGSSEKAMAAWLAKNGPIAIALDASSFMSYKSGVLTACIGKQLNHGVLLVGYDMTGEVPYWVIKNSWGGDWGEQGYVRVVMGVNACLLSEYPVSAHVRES

Question: What does the source list for `O=C(N[C@@H](CSCc1ccccc1)C(=O)N1CC[C@@H]2[C@H]1C(=O)CN2C(=O)c1ccccc1)c1ccsc1` [Example 251, (3aR,6aS)-Thiophene-3-carboxylic acid [(1R)-2-(4-benzoyl-6-oxo-hexahydro-pyrrolo[3,2-b]pyrrole-1-yl)-1-benzylsulfanylmethyl-2-oxo-ethyl]-amide]?
Answer: Ki (human cathepsin L): < 5 µM; Ki (human cathepsin B; [1]): < 5 µM

Question: For `CCC(C)CC(=O)N1CC(=O)[C@@H]2[C@H]1CCN2C(=O)[C@H](CC(C)C)NC(=O)c1ccc(N(C)C)cc1` (stereo partly drawn) [Example 141, (3aR,6aS)-4-Dimethylamino-N-{(1S)-3-methyl-1-[4-(3-methyl-pentanoyl)-6-oxo-hexahydro-pyrrolo[3,2-b]pyrrole-1-carbonyl]-butyl}-benzamide], which Ki (human cathepsin B; [1]) is on record?
Answer: Its Ki is less than 5 µM.

Question: What about the Ki (CPB2.8ΔCTE) of the same compound?
Answer: The Ki was less than 5 µM.

Question: What about the Ki (Wild-type cruzipain) of the same compound?
Answer: Its Ki is less than 5 µM.

Question: `O=C(N[C@@H](CC1CCCCC1)C(=O)N1CC[C@@H]2[C@H]1C(=O)CN2C(=O)c1ccc(-c2ccccc2)s1)c1ccsc1` [Example 258, (3aR,6aS)-Thiophene-3-carboxylic acid {(1S)-1-cyclohexylmethyl-2-oxo-2-[6-oxo-4-(5-phenyl-thiophene-2-carbonyl)-hexahydro-pyrrolo[3,2-b]pyrrole-1-yl]-ethyl}-amide] was tested. Which Ki (human cathepsin L) did it give?
Answer: Its Ki is less than 5 µM.

Question: What about the Ki (human cathepsin B; [1]) of the same compound?
Answer: Its Ki is less than 5 µM.

Question: `Cc1cccc(C(=O)N2CC(=O)[C@@H]3[C@H]2CCN3C(=O)[C@H](CSCc2ccccc2)NC(=O)c2ccsc2)c1` [Example 275, (3aR,6aS)-Thiophene-3-carboxylic acid {(1R)-1-benzylsulfanylmethyl-2-[4-(3-methyl-benzoyl)-6-oxo-hexahydro-pyrrolo[3,2-b]pyrrol-1-yl]-2-oxo-ethyl}-amide] was tested. Which Ki (human cathepsin L) did it give?
Answer: The Ki was less than 5 µM.

Question: And the Ki (human cathepsin B; [1])?
Answer: Its Ki is less than 5 µM.

Question: What does the source list for `CC(C)C[C@H](NC(=O)c1ccc(C(C)(C)C)cc1)C(=O)N1CC[C@@H]2[C@H]1C(=O)CN2C(=O)c1cncc(-c2cccs2)c1` [Example 35, (3aR,6aS)-4-tert-Butyl-N-{(1S)-3-methyl-1-[6-oxo-4-(5-thiophen-2-yl-pyridine-3-carbonyl)-hexahydro-pyrrolo[3,2-b]pyrrole-1-carbonyl]-butyl}-benzamide]?
Answer: Ki (human cathepsin B; [1]): < 5 µM; Ki (CPB2.8ΔCTE): < 5 µM; Ki (Wild-type cruzipain): < 5 µM

Question: Which Ki (human cathepsin B; [1]) does the source give for `CC(C)C[C@H](NC(=O)c1ccc(N(C)C)cc1)C(=O)N1CC[C@@H]2[C@H]1C(=O)CN2C(=O)c1ccc2cc[nH]c2c1` [Example 99, (3aR,6aS)-4-Dimethylamino-N-{(1S)-1-[4-(1H-indole-6-carbonyl)-6-oxo-hexahydro-pyrrolo[3,2-b]pyrrole-1-carbonyl]-3-methyl-butyl}-benzamide] here?
Answer: The Ki was less than 5 µM.

Question: What about the Ki (CPB2.8ΔCTE) of the same compound?
Answer: The Ki was less than 5 µM.

Question: And the Ki (Wild-type cruzipain)?
Answer: Its Ki is less than 5 µM.

Question: Which Ki (human cathepsin B; [1]) does the source give for `CC(C)C[C@H](NC(=O)c1ccc(N(C)C)cc1)C(=O)N1CC[C@@H]2[C@H]1C(=O)CN2C(=O)c1ccc2nonc2c1` [Example 102, (3aR,6aS)-N-{(1S)-1-[4-(Benzo[1,2,5]oxadiazole-5-carbonyl)-6-oxo-hexahydro-pyrrolo[3,2-b]pyrrole-1-carbonyl]-3-methyl-butyl}-4-dimethylamino-benzamide] here?
Answer: The Ki was less than 5 µM.

Question: What about the Ki (CPB2.8ΔCTE) of the same compound?
Answer: The Ki was less than 5 µM.

Question: What about the Ki (Wild-type cruzipain) of the same compound?
Answer: The Ki was less than 5 µM.

Question: What does the source list for `CC(C)C[C@H](NC(=O)c1ccc(C(C)(C)C)cc1)C(=O)N1CC[C@@H]2[C@H]1C(=O)CN2C(=O)c1csc(-c2ccccc2)n1` [Example 27, (3aR,6aS)-4-tert-Butyl-N-{(1S)-3-methyl-1-[6-oxo-4-(2-phenyl-thiazole-4-carbonyl)-hexahydro-pyrrolo[3,2-b]pyrrole-1-carbonyl]-butyl}-benzamide]?
Answer: Ki (human cathepsin B; [1]): < 5 µM; Ki (CPB2.8ΔCTE): < 5 µM; Ki (Wild-type cruzipain): < 5 µM

Question: How did the Ki (human cathepsin B; [1]) turn out when `CC(C)C[C@H](NC(=O)c1ccc(C(C)(C)C)cc1)C(=O)N1CC[C@@H]2[C@H]1C(=O)CN2C(=O)c1ccc2ccccc2c1` [Example 34, (3aR,6aS)-4-tert-Butyl-N-{(1S)-3-methyl-1-[4-(naphthalene-2-carbonyl)-6-oxo-hexahydro-pyrrolo[3,2-b]pyrrole-1-carbonyl]-butyl}-benzamide] was run?
Answer: The Ki was less than 5 µM.

Question: And the Ki (CPB2.8ΔCTE)?
Answer: Its Ki is less than 5 µM.

Question: What about the Ki (Wild-type cruzipain) of the same compound?
Answer: Its Ki is less than 5 µM.

Question: With `CC(C)C[C@H](NC(=O)c1ccc(N(C)C)cc1)C(=O)N1CC[C@@H]2[C@H]1C(=O)CN2C(=O)C12CC3CC(CC(C3)C1)C2` [Example 48, (3aR,6aS)-N-{(1S)-1-[4-(Adamantane-1-carbonyl)-6-oxo-hexahydro-pyrrolo[3,2-b]pyrrole-1-carbonyl]-3-methyl-butyl}-4-dimethylamino-benzamide] as the compound, how does the Ki (human cathepsin B; [1]) read?
Answer: The Ki was less than 5 µM.

Question: What about the Ki (CPB2.8ΔCTE) of the same compound?
Answer: Its Ki is less than 5 µM.

Question: What about the Ki (Wild-type cruzipain) of the same compound?
Answer: The Ki was less than 5 µM.

Question: How did the Ki (human cathepsin B; [1]) turn out when `CC(C)C[C@H](NC(=O)c1ccc(N(C)C)cc1)C(=O)N1CC[C@@H]2[C@H]1C(=O)CN2C(=O)c1cccc([N+](=O)[O-])c1` [Example 46, (3aR,6aS)-4-Dimethylamino-N-{(1S)-3-methyl-1-[4-(3-nitro-benzoyl)-6-oxo-hexahydro-pyrrolo[3,2-b]pyrrole-1-carbonyl]-butyl}-benzamide] was run?
Answer: The Ki was less than 5 µM.

Question: And the Ki (CPB2.8ΔCTE)?
Answer: The Ki was less than 5 µM.

Question: What about the Ki (Wild-type cruzipain) of the same compound?
Answer: The Ki was less than 5 µM.

Question: For `CC(C)C[C@H](NC(=O)c1ccc(N(C)C)cc1)C(=O)N1CC[C@@H]2[C@H]1C(=O)CN2C(=O)C1CCCCCC1` [Example 135, (3aR,6aS)-N-[(1S)-1-(4-Cycloheptanecarbonyl-6-oxo-hexahydro-pyrrolo[3,2-b]pyrrole-1-carbonyl)-3-methyl-butyl]-4-dimethylamino-benzamide], which Ki (human cathepsin B) is on record?
Answer: The Ki was less than 5 µM.

Question: What about the Ki (CPB2.8ΔCTE) of the same compound?
Answer: Its Ki is less than 5 µM.

Question: And the Ki (Wild-type cruzipain)?
Answer: Its Ki is less than 5 µM.

Question: With `CCN(CC)c1ccc(C(=O)N[C@@H](CC(C)C)C(=O)N2CC[C@@H]3[C@H]2C(=O)CN3C(=O)c2cccc(S(C)(=O)=O)c2)cc1` [Example 60, (3aR,6aS)-4-Diethylamino-N-{(1S)-1-[4-(3-methanesulfonyl-benzoyl)-6-oxo-hexahydro-pyrrolo[3,2-b]pyrrole-1-carbonyl]-3-methyl-butyl}-benzamide] as the compound, how does the Ki (human cathepsin B; [1]) read?
Answer: Its Ki is less than 5 µM.

Question: What about the Ki (CPB2.8ΔCTE) of the same compound?
Answer: The Ki was less than 5 µM.

Question: And the Ki (Wild-type cruzipain)?
Answer: The Ki was less than 5 µM.

Question: Which results are given for `CC(C)C[C@H](NC(=O)c1ccc(N(C)C)cc1)C(=O)N1CC[C@@H]2[C@H]1C(=O)CN2C(=O)c1ccc(Cl)cc1` [Example 74, (3aR,6aS)-N-{(1S)-1-[4-(4-Chloro-benzoyl)-6-oxo-hexahydro-pyrrolo[3,2-b]pyrrole-1-carbonyl]-3-methyl-butyl}-4-dimethylamino-benzamide]?
Answer: Ki (human cathepsin B; [1]): < 5 µM; Ki (CPB2.8ΔCTE): < 5 µM; Ki (Wild-type cruzipain): < 5 µM

Question: With `CC(C)C[C@H](NC(=O)c1ccc(N(C)C)cc1)C(=O)N1CC[C@@H]2[C@H]1C(=O)CN2C(=O)c1ccc(Cl)s1` [Example 166, (3aR,6aS)-N-{(1S)-1-[4-(5-Chloro-thiophene-2-carbonyl)-6-oxo-hexahydro-pyrrolo[3,2-b]pyrrole-1-carbonyl]-3-methyl-butyl}-4-dimethylamino-benzamide] as the compound, how does the Ki (human cathepsin B; [1]) read?
Answer: Its Ki is less than 5 µM.

Question: And the Ki (CPB2.8ΔCTE)?
Answer: Its Ki is less than 5 µM.

Question: What about the Ki (Wild-type cruzipain) of the same compound?
Answer: The Ki was less than 5 µM.

Question: With `CC(C)C[C@H](NC(=O)c1ccc(N(C)C)cc1)C(=O)N1CC[C@@H]2[C@H]1C(=O)CN2C(=O)c1ccc2c(c1)OCO2` [Example 77, (3aR,6aS)-N-{(1S)-1-[4-(Benzo[1,3]dioxole-5-carbonyl)-6-oxo-hexahydro-pyrrolo[3,2-b]pyrrole-1-carbonyl]-3-methyl-butyl}-4-dimethylamino-benzamide] as the compound, how does the Ki (human cathepsin B; [1]) read?
Answer: The Ki was less than 5 µM.

Question: What about the Ki (CPB2.8ΔCTE) of the same compound?
Answer: Its Ki is less than 5 µM.

Question: And the Ki (Wild-type cruzipain)?
Answer: The Ki was less than 5 µM.

Question: With `CC(C)C[C@H](NC(=O)c1ccc(N(C)C)cc1)C(=O)N1CC[C@@H]2[C@H]1C(=O)CN2C(=O)c1cccc(S(C)(=O)=O)c1` [Example 43, (3aR,6aS)-4-Dimethylamino-N-{(1S)-1-[4-(3-methanesulfonyl-benzoyl)-6-oxo-hexahydro-pyrrolo[3,2-b]pyrrole-1-carbonyl]-3-methyl-butyl}-benzamide] as the compound, how does the Ki (human cathepsin B; [1]) read?
Answer: The Ki was less than 5 µM.

Question: What about the Ki (CPB2.8ΔCTE) of the same compound?
Answer: Its Ki is less than 5 µM.

Question: And the Ki (Wild-type cruzipain)?
Answer: Its Ki is less than 5 µM.
